Columns and labels:
Assay type in all cases: cell-based
mouse OPCs [1] = experiment: RNA sequencing of drug-treated OPCs; details: 2, 6 or 12 h of drug treatment
Experimental: Cells were lysed directly in 1 ml TRIzol (Invitrogen) and stored at −80° C. Once all samples were collected, samples were thawed on ice and separated with chloroform using Phase Lock Gel tubes (5 PRIME). RNA was isolated using the miRNeasy PlusMini Kit (Qiagen) according to the manufacturer's protocol. One microgram of each sample was then poly-A selected, fragmented, and library prepared using the TruSeqRNA Sample Prep Kit (Illumina) according to the manufacturer's protocol. Samples were indexed using TruSeq adapters. One hundred base-pair paired-end reads were generated for each sample on an Illumina HiSeq 2500 instrument at the Case Western Reserve University Genomics Core facility. Between 5 million and 13 million reads were generated per sample for drug time course experiments. […] EpiSCs, EpiSC OPCs, and in vivo OPCs were sequenced to depths of 51,271,458 reads, 61,072,460 reads, and 62,530,709 reads, respectively. […]
Reference genome files were retrieved from Illumina iGenomes. Reads were aligned to the mm9 genome using Tophat version 2.0.8 with default settings. Expression values of known RefSeq genes were calculated in units of fragments per kilobase per million reads (FPKM) using Cufflinks version 2.0.2. […] The collective list of changed genes for each drug was evaluated with Ingenuity Pathway Analysis (application build 261899, content version 18030641).

mouse OPCs [2] = experiment: Global phosphoproteomics of drug-treated OPCs; details: 1 and 5 h after treatment
Experimental: Briefly, for each sample 30 million cells were lysed with 2% SDS solution with protease and phosphatase inhibitor (Thermo Fisher), and detergent was removed on 200 μl of the cell lysate using the FASP cleaning procedure. Each sample was digested by a two-step Lys-C/trypsin proteolytic cleavage and subjected to phospho-enrichment using a commercially available TiO2 enrichment spin tips (Thermo Fisher). LC-MS/MS analysis used a UPLC system (NanoAcquity, Waters) that was interfaced to an Orbitrap ProVelos Elite MS system (Thermo Fisher). Fold-change calculations were determined from peptide intensities for each drug versus DMSO at each time point. Phosphopeptides with greater than twofold change were imported into Ingenuity Pathway Analysis to elucidate signalling pathways perturbed with drug treatment.

ERK1/2 = experiment: Western blot of ERK1/2 phosphorylation in mouse fibroblasts; details: non-neural cell type, treated for 1 h

Row | Structure (SMILES) | modulation of gene expression (mouse OPCs [1]) | pathways affected in phosphoproteomic analysis (mouse OPCs [2]) | ERK1/2 phosphorylation in mouse fibroblasts (ERK1/2)
1 | C[C@H]1C[C@H]2[C@@H]3CCC4=CC(=O)C=C[C@]4(C)[C@@]3(F)[C@@H](O)C[C@]2(C)[C@@]1(O)C(=O)CCl [clobetasol] | potently modulated genes downstream of multiple nuclear hormone receptors |  | 
2 | Clc1ccc(COC(Cn2ccnc2)c2ccc(Cl)cc2Cl)c(Cl)c1 (stereo not drawn) [miconazole] |  | proteins in the mitogen-activated protein (MAP) kinase pathway were most strongly affected | no increase of ERK1/2 phosphorylation

Reference: patent US10653691B2, “Method of promoting remyelination” (Case Western Reserve University, priority 2013, dated 2020)
